Experimental data as given in patent US20250195521A1 (Revolution Medicines, Inc., priority 2020, published 2025).

Columns and labels:
[1] = test system: K-Ras G12C (NCI-H358 cells); experiment: Potency assay: pERK in NCI-H358 cells; assay type: cell-based, human; conditions: Homo sapiens; NCI-H358 cells, 4 hours; read-out: pERK EC50 (H358 KRAS G12C)
In short: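 Cells plated the day before were exposed for 4 h at 37° C, 5% CO2 to a 10-point, 3-fold DMSO dilution series (10 mM top stock), in duplicate. Phospho-ERK was read by AlphaLISA SureFire Ultra or by In-Cell Western with DRAQ5 DNA stain, and IC50 came from a 4-parameter sigmoidal fit.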

NCI-H358 (K-Ras G12C) = experiment: CellTiter-Glo cell viability assay, NCI-H358; assay type: cell-based, human; conditions: Homo sapiens, NCI-H358, 120 h, 5-day treatment; read-out: H358 Cell Viability assay data (K-Ras G12C, IC50)
In short: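 Cells seeded, compound added directly to plates; day 5: plates to RT ~30 min, CellTiter-Glo luminescence; (sample/avg DMSO)*100; 4-parameter fit.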

[2] = target: K-Ras G12C(GMP-PNP) binding to BRAF RBD (Homo sapiens (Human), UniProt P01116+P62937, G12C); experiment: Disruption of BRAF RBD interaction with K-Ras (FRET / MOA assay), K-Ras G12C; assay type: biochemical; conditions: read-out: KRAS G12C FRET IC50
Sequence of K-Ras G12C(GMP-PNP) binding to BRAF RBD (P01116 other isoform, or with tags, fused parts or gaps G12C): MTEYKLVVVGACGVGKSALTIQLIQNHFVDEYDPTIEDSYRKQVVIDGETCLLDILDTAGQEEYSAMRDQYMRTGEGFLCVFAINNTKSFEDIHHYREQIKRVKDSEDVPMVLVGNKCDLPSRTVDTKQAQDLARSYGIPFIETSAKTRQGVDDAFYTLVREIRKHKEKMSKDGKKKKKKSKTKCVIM
Sequence of K-Ras G12C(GMP-PNP) binding to BRAF RBD (P62937 whole entry): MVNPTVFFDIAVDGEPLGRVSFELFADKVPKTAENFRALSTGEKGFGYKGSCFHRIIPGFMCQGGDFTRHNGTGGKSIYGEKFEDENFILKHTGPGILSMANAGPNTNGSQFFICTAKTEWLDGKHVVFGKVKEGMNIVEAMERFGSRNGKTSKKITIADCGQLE
In short: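 TR-FRET readout: after 3 h compound incubation at 25 °C, anti-His Eu and anti-GST allophycocyanin (10 and 50 nM final) added for a further 1.5 h. Dilution series was 10-point, 3-fold, top 30 μM final. Ras–cyclophilin A ternary complex formation blocks the BRAF RBD interaction; IC50 derived from reduced FRET ratio relative to DMSO.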

[3] = target: KRAS G12S binding to BRAF RBD (Homo sapiens (Human), UniProt P01116+P62937, G12S); experiment: Ras-Raf disruption/FRET/MOA assay, KRAS G12S; assay type: biochemical
Sequence of KRAS G12S binding to BRAF RBD (P01116 other isoform, or with tags, fused parts or gaps G12S): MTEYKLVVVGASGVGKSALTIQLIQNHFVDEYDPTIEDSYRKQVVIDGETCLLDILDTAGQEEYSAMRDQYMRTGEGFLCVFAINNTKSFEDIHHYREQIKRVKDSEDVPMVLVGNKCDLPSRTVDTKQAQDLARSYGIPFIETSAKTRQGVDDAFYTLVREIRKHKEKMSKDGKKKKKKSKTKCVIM
Sequence of KRAS G12S binding to BRAF RBD (P62937 whole entry): as the sequence (P62937 whole entry) above
From the text: (§1) Note—The following protocol describes a procedure for monitoring disruption of K-Ras G12C(GMP-PNP) binding to BRAF^RBD by a compound of the invention. This protocol may also be executed substituting other Ras proteins or nucleotides.
(§2) The purpose of this biochemical assay was to measure the ability of test compounds to facilitate ternary complex formation between a nucleotide-loaded K-Ras isoform and Cyclophilin A; the resulting ternary complex disrupts binding to a BRAF^RBD construct, inhibiting K-Ras signaling through a RAF effector. Data is reported as IC50 values.
(§3) Compound was present in plate wells as a 10-point 3-fold dilution series starting at a final concentration of 30 μM. After incubation at 25° C. for 3 hours, a mixture of Anti-His Eu—W1024 and anti-GST allophycocyanin was then added to assay sample wells at final concentrations of 10 nM and 50 nM, respectively, and the reaction incubated for an additional 1.5 hours. […] Compounds that facilitate disruption of a K-Ras: RAF complex were identified as those eliciting a decrease in the TR-FRET ratio relative to DMSO control wells.

[4] = target: KRAS G12V binding to BRAF RBD (Homo sapiens (Human), UniProt P01116+P62937, G12V); experiment: Ras-Raf disruption/FRET/MOA assay, KRAS G12V; assay type: biochemical; conditions: read-out: KRAS G12V FRET IC50
Sequence of KRAS G12V binding to BRAF RBD (P01116 other isoform, or with tags, fused parts or gaps G12V): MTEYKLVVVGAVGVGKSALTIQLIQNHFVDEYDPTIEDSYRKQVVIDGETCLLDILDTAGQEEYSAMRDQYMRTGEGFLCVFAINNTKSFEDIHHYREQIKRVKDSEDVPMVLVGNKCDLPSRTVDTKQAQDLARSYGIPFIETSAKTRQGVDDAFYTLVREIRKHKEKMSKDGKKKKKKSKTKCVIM
Sequence of KRAS G12V binding to BRAF RBD (P62937 whole entry): as the sequence (P62937 whole entry) above
From the text: as §1, §2, §3

[5] = target: KRAS WT binding to BRAF RBD (Homo sapiens (Human), UniProt P01116+P62937); experiment: Ras-Raf disruption/FRET/MOA assay, KRAS WT; assay type: biochemical
Sequence of KRAS WT binding to BRAF RBD (P01116 other isoform, or with tags, fused parts or gaps): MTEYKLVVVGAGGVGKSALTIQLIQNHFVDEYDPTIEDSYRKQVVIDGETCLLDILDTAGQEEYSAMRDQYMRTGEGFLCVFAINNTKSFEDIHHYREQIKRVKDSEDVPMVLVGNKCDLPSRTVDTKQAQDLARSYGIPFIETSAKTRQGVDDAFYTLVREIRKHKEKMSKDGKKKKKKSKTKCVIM
Sequence of KRAS WT binding to BRAF RBD (P62937 whole entry, the tested form may be a part): as the sequence (P62937 whole entry) above
From the text: (§4) Disruption of B-Raf Ras-binding Domain (BRAF^RBD) Interaction with K-Ras by Compounds of the Invention (also called a FRET assay or an MOA assay)
as §1, §2
as §3, with “In assay buffer containing 25 mM HEPES pH 7.3, 0.002% Tween20, 0.1% BSA, 100 mM NaCl and 5 mM MgCl2, tagless Cyclophilin A, His6-K-Ras-GMPPNP, and GST-BRAF^RBD were combined in a 384-well assay plate at final concentrations of 25 μM, 12.5 nM and 50 nM, respectively. Compound was” for “Compound was”

[6] = target: KRAS G13D binding to BRAF RBD (Homo sapiens (Human), UniProt P01116+P62937, G13D); experiment: Ras-Raf disruption/FRET/MOA assay, KRAS G13D; assay type: biochemical
Sequence of KRAS G13D binding to BRAF RBD (P01116 other isoform, or with tags, fused parts or gaps G13D): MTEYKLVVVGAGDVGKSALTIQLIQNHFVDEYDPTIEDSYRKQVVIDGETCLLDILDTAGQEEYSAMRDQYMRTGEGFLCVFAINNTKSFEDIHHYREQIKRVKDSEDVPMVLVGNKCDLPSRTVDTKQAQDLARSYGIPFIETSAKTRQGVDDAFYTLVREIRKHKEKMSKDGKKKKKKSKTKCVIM
Sequence of KRAS G13D binding to BRAF RBD (P62937 whole entry): as the sequence (P62937 whole entry) above
In short: (§5)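 TR-FRET ratio drop relative to DMSO wells marks disruption of the Ras–RAF complex, reported as IC50. Compounds promote a Ras(nucleotide)–cyclophilin A ternary complex that blocks BRAF RBD binding; dosing was 10 points, 3-fold, top 30 μM final, 3 h at 25° C before detection.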

[7] = target: KRAS Q61H binding to BRAF RBD (Homo sapiens (Human), UniProt P01116+P62937, Q61H); experiment: Ras-Raf disruption/FRET/MOA assay, KRAS Q61H; assay type: biochemical
Sequence of KRAS Q61H binding to BRAF RBD (P01116 other isoform, or with tags, fused parts or gaps Q61H): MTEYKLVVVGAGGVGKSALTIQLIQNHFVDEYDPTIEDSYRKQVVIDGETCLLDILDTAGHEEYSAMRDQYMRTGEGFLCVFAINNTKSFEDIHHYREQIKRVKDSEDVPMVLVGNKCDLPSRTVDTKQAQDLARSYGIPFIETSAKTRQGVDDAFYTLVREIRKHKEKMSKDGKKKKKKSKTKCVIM
Sequence of KRAS Q61H binding to BRAF RBD (P62937 whole entry): as the sequence (P62937 whole entry) above
From the text: as §4, §1, §2
as §3, with “In assay buffer containing 25 mM HEPES pH 7.3, 0.002% Tween20, 0.1% BSA, 100 mM NaCl and 5 mM MgCl2, tagless Cyclophilin A, His6-K-Ras-GMPPNP, and GST-BRAF^RBD were combined in a 384-well assay plate at final concentrations of 25 μM, 12.5 nM and 50 nM, respectively. Compound was” for “Compound was”

[8] = target: NRAS G12C binding to BRAF RBD (Homo sapiens (Human), UniProt P01111+P62937, G12C); experiment: Ras-Raf disruption/FRET/MOA assay, NRAS G12C; assay type: biochemical
Sequence of NRAS G12C binding to BRAF RBD (P01111 whole entry G12C): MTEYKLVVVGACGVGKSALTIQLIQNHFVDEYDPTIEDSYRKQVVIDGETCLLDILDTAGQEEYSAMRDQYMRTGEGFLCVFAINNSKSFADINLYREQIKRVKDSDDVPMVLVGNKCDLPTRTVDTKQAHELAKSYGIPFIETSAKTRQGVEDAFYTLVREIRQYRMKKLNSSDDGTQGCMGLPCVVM
Sequence of NRAS G12C binding to BRAF RBD (P62937 whole entry): as the sequence (P62937 whole entry) above
In short: as §5

[9] = target: NRAS Q61R binding to BRAF RBD (Homo sapiens (Human), UniProt P01111+P62937, Q61R); experiment: Ras-Raf disruption/FRET/MOA assay, NRAS Q61R; assay type: biochemical
Sequence of NRAS Q61R binding to BRAF RBD (P01111 whole entry Q61R): as the sequence (P01111 whole entry G12C) above, with C12G, Q61R counted along it
Sequence of NRAS Q61R binding to BRAF RBD (P62937 whole entry): as the sequence (P62937 whole entry) above
From the text: as §4, §1, §2
as §3, with “In assay buffer containing 25 mM HEPES pH 7.3, 0.002% Tween20, 0.1% BSA, 100 mM NaCl and 5 mM MgCl2, tagless Cyclophilin A, His6-K-Ras-GMPPNP, and GST-BRAF^RBD were combined in a 384-well assay plate at final concentrations of 25 μM, 12.5 nM and 50 nM, respectively. Compound was” for “Compound was”

[10] = target: NRAS Q61K binding to BRAF RBD (Homo sapiens (Human), UniProt P01111+P62937, Q61K); experiment: Ras-Raf disruption/FRET/MOA assay, NRAS Q61K; assay type: biochemical
Sequence of NRAS Q61K binding to BRAF RBD (P01111 whole entry Q61K): as the sequence (P01111 whole entry G12C) above, with C12G, Q61K counted along it
Sequence of NRAS Q61K binding to BRAF RBD (P62937 whole entry): as the sequence (P62937 whole entry) above
From the text: as §4, §1, §2
as §3, with “In assay buffer containing 25 mM HEPES pH 7.3, 0.002% Tween20, 0.1% BSA, 100 mM NaCl and 5 mM MgCl2, tagless Cyclophilin A, His6-K-Ras-GMPPNP, and GST-BRAF^RBD were combined in a 384-well assay plate at final concentrations of 25 μM, 12.5 nM and 50 nM, respectively. Compound was” for “Compound was”

[11] = target: NRAS WT binding to BRAF RBD (Homo sapiens (Human), UniProt P01111+P62937); experiment: Ras-Raf disruption/FRET/MOA assay, NRAS WT; assay type: biochemical
Sequence of NRAS WT binding to BRAF RBD (P01111 whole entry): as the sequence (P01111 whole entry G12C) above, with C12G counted along it
Sequence of NRAS WT binding to BRAF RBD (P62937 whole entry): as the sequence (P62937 whole entry) above
From the text: as §4, §1, §2
as §3, with “In assay buffer containing 25 mM HEPES pH 7.3, 0.002% Tween20, 0.1% BSA, 100 mM NaCl and 5 mM MgCl2, tagless Cyclophilin A, His6-K-Ras-GMPPNP, and GST-BRAF^RBD were combined in a 384-well assay plate at final concentrations of 25 μM, 12.5 nM and 50 nM, respectively. Compound was” for “Compound was”

NRAS WT = NRAS WT (Homo sapiens (Human), UniProt P01111+P62937); experiment: Ras-Raf disruption/FRET/MOA assay, NRAS WT; assay type: biochemical; conditions: read-out: NRAS WT FRET IC50
Sequence of NRAS WT (P01111 whole entry, the tested form may be a part): as the sequence (P01111 whole entry G12C) above, with C12G counted along it
Sequence of NRAS WT (P62937 whole entry, the tested form may be a part): as the sequence (P62937 whole entry) above
From the text: (§6) Disruption of B-Raf Ras-Binding Domain (BRAF^RBD) Interaction with K-Ras by Compounds of the Invention (Also Called a FRET Assay or an MOA Assay)
(§7) Note—The following protocol describes a procedure for monitoring disruption of K-Ras G12C (GMP-PNP) binding to BRAF^RBD by a compound of the invention. This protocol may also be executed substituting other Ras proteins or nucleotides, such as K-Ras G12D and K-Ras G13D.
as §2
as §3, with “In assay buffer containing 25 mM HEPES pH 7.3, 0.002% Tween20, 0.1% BSA, 100 mM NaCl and 5 mM MgCl2, tagless Cyclophilin A, His6-K-Ras-GMPPNP, and GST-BRAF^RBD were combined in a 384-well assay plate at final concentrations of 25 μM, 12.5 nM, and 50 nM, respectively. Compound was” for “Compound was”, “mixture of anti-His Eu—W1024 and” for “mixture of Anti-His Eu—W1024 and”

NRAS Q61K = NRAS Q61K (Homo sapiens (Human), UniProt P01111+P62937, Q61K); experiment: Ras-Raf disruption/FRET/MOA assay, NRAS Q61K; assay type: biochemical; conditions: read-out: NRAS Q61K FRET data IC50
Sequence of NRAS Q61K (P01111 whole entry Q61K): as the sequence (P01111 whole entry G12C) above, with C12G, Q61K counted along it
Sequence of NRAS Q61K (P62937 whole entry): as the sequence (P62937 whole entry) above
From the text: as §6, §7, §2
as §3, with “In assay buffer containing 25 mM HEPES pH 7.3, 0.002% Tween20, 0.1% BSA, 100 mM NaCl and 5 mM MgCl2, tagless Cyclophilin A, His6-K-Ras-GMPPNP, and GST-BRAF^RBD were combined in a 384-well assay plate at final concentrations of 25 μM, 12.5 nM, and 50 nM, respectively. Compound was” for “Compound was”, “mixture of anti-His Eu—W1024 and” for “mixture of Anti-His Eu—W1024 and”

NRAS Q61R = NRAS Q61R (Homo sapiens (Human), UniProt P01111+P62937, Q61R); experiment: Ras-Raf disruption/FRET/MOA assay, NRAS Q61R; assay type: biochemical; conditions: read-out: NRAS Q61R FRET data IC50
Sequence of NRAS Q61R (P01111 whole entry Q61R): as the sequence (P01111 whole entry G12C) above, with C12G, Q61R counted along it
Sequence of NRAS Q61R (P62937 whole entry): as the sequence (P62937 whole entry) above
From the text: as §6, §7, §2
as §3, with “In assay buffer containing 25 mM HEPES pH 7.3, 0.002% Tween20, 0.1% BSA, 100 mM NaCl and 5 mM MgCl2, tagless Cyclophilin A, His6-K-Ras-GMPPNP, and GST-BRAF^RBD were combined in a 384-well assay plate at final concentrations of 25 μM, 12.5 nM, and 50 nM, respectively. Compound was” for “Compound was”, “mixture of anti-His Eu—W1024 and” for “mixture of Anti-His Eu—W1024 and”

SMILES	EC50 [1]	IC50 (NCI-H358 (K-Ras G12C))	IC50 [2]	IC50 [3]	IC50 [4]	IC50 [5]	IC50 [6]	IC50 [7]	IC50 [8]	IC50 [9]	IC50 [10]	IC50 [11]	IC50 (NRAS WT)	IC50 (NRAS Q61K)	IC50 (NRAS Q61R)
C=CC(=O)N(C)CC1CCN(C(=O)N(C)[C@H](C(=O)N[C@H]2Cc3nc(cs3)-c3ccc4c(c3)c(c(-c3cccnc3[C@H](C)OC)n4CC)CC(C)(C)COC(=O)[C@@H]3CCCN(N3)C2=O)C(C)C)CC1 (atropisomer, axis not shown) [Compound A629]	< 5000 nM	< 10 nM	10 to 100 nM	10 to 100 nM	10 to 100 nM	10 to 100 nM	100 to 1000 nM	10 to 100 nM	10 to 100 nM	10 to 100 nM	10 to 100 nM	10 to 100 nM	–	–	–
CCn1c(-c2cccnc2[C@H](C)OC)c2c3cc(ccc31)-c1cc(O)cc(c1)C[C@H](NC(=O)[C@H](C(C)C)N(C)C(=O)[C@H]1CCCN(C(=O)[C@@H]3CN3)C1)C(=O)N1CCC[C@H](N1)C(=O)OCC(C)(C)C2 (atropisomer, axis not shown) [Example 238]	–	–	–	–	–	–	–	–	–	–	–	–	10 to 100 nM	100 to 1000 nM	100 to 1000 nM
